According to PMC3045100, “Cell-Penetrating Penta-Peptides (CPP5s): Measurement of Cell Entry and Protein-Transduction Activity” (Pharmaceuticals, 2010):

Experiments:
[1] = molecular target: T1, Bax (Homo sapiens, UniProt Q07812); experiment: Inhibition of Bax-induced apoptosis after pEGFP-Bax transfection; type: cell-based; conditions: 200 μM peptide 3 h before pEGFP-Bax plasmid transfection, apoptosis assayed 24 h after transfection, triplicate samples, P < 0.01
T1 construct: expressed in transfected cells; host or cells: HeLa cells
Experimental: (§1) Figure 3 Protection of cells from apoptosis by VPTLK. a-d. Proteoglycan is not required for VPTLK cell entry. Microscopic analysis of cell entry of Fam-VPTLK in Chinese Hamster Ovary (CHO) A745 cells lacking proteoglycans in the plasma membrane (a) and CHO K1 cells that express proteoglycans (b). CHO A745 and K1 cells were incubated with Fam-VPTLK (200 μM) for 3 h at 37 °C. […] Apoptosis was determined by using Hoechst dye nuclear staining. Each bar represents the mean of triplicate samples and standard error, and statistical significance was determined by an unpaired student t test; “ns”: not significant, *P < 0.05, and **P < 0.01. e. […] Jurkat cells were pre-incubated with VPTLK 200 μM for 3 h prior to STS treatment (100 nM, 3 or 6 h). Apoptosis was determined by Hoechst dye nuclear staining. Each bar represents the mean of triplicate samples and standard error, and statistical significance was determined by an unpaired student t test: **P < 0.01. f. […] Apoptosis was determined by Hoechst dye nuclear staining. […]
(§2) To induce Bax-mediated apoptosis in HeLa cells, cells were transfected with pEGFP-Bax (1 µg) and apoptosis was determined 24 h after the transfection. […] To detect apoptosis, cells were stained with Hoechst 33258 dye, and the numbers of cells with apoptotic nuclei were counted using fluorescence microscopy. Three-hundred cells were analyzed in triplicate samples. […]

[2] = test system: HeLa cells; experiment: Protection from etoposide-induced apoptosis (Hoechst nuclear staining); type: cell-based; conditions: 200 μM peptide 3 h pretreatment, etoposide 10 μM, 24 h, Hoechst dye nuclear staining, triplicate samples, P < 0.01
Experimental: as §1, §2

[3] = test system: DAMI cells; experiment: Cell-penetration activity of Fam-labeled CPP5s, cellular fluorescence by FACS and/or microscopy; type: cell-based, human; conditions: peptides Fam-labeled on the N-terminus, 200 μM, 3 h, 37 °C, fluorescence intensity of cells by FACS, mean of triplicate samples
Experimental: Figure 1 Cell-penetration activity of CPP5s. a. List of cell-penetrating penta-peptides (CPP5s). […] Peptide sequences are color-coded to show the constant amphipathic amino acid arrangement in each CPP5. Cell-penetration activity was determined by fluorescence intensity of cells (DAMI cells: a human megakaryocytic cancer cell line) incubated with fluorescein (Fam)-labeled peptides (200 μM) for 3 h at 37 °C as described in Experimental Procedures. Fam was labeled on the N-terminus of all peptides examined. Cells were analyzed by FACS and/or microscopy. The activity of each peptide is shown as a percentage of the activity of KLPVM. Each value represents the mean of triplicate samples. Cell entry of some peptides was confirmed by microscopy only, and these peptides are indicated with a ‘+’ without a percentage value. For cytoprotective activity (right column), the information is based on previous studies and the activity was determined by the protection of cells from Bax overexpression and other apoptotic stimuli such as etoposide treatment. b to e. Cell entry of Fam-labeled VPTLK, KLPVM, TAT, and poly-arginine (R8). HeLa cells were incubated with Fam-labeled VPTLK, KLPVM (200 μM), Fam-TAT (10 μM), and Fam-R8 (10 μM) for 1 h at 37 °C. Images are at 20× magnification. f. Comparison of the cytotoxicity of CPP5 and TAT. Primary cultured mouse embryonic fibroblast (MEF) cells were treated with various concentrations of peptides for 24 h as indicated. Then, apoptosis was analyzed as described in Experimental Procedures. Each bar represents the mean of triplicate samples and standard error. TEXT PRINTED IN THE PICTURE: (a) VPMLK: Cell Penetration (%): 97 ± 4.3; Cytoprotection: + | (a) VPTLK: Cell Penetration (%): 61 ± 1.7; Cytoprotection: + | (a) VPALR: Cell Penetration (%): 79 ± 1.5; Cytoprotection: + | (a) VSALK: Cell Penetration (%): 90 ± 3; Cytoprotection: N.D. | (a) PMLKE: Cell Penetration (%): 65 ± 3.7; Cytoprotection: + | (a) VPALK: Cell Penetration (%): 71 ± 2.2; Cytoprotection: + | (a) VSLKK: Cell Penetration (%): +; Cytoprotection: - | (a) VSGKK: Cell Penetration (%): +; Cytoprotection: - | (a) KLPVM: Cell Penetration (%): 100 ± 2.3; Cytoprotection: - | (a) IPMIK: Cell Penetration (%): 47 ± 1.4; Cytoprotection: - | (a) KLGVM: Cell Penetration (%): +; Cytoprotection: - | (a) KLPVT: Cell Penetration (%): +; Cytoprotection: - | (a) VPMIK: Cell Penetration (%): +; Cytoprotection: N.D. | (a) IPALK: Cell Penetration (%): +; Cytoprotection: N.D. | (a) IPMLK: Cell Penetration (%): +; Cytoprotection: N.D. | (a) VPTLQ: Cell Penetration (%): 70 ± 4; Cytoprotection: - | (a) QLPVM: Cell Penetration (%): +; Cytoprotection: - | (a) ELPVM: Cell Penetration (%): +; Cytoprotection: - | (a) VPTLE: Cell Penetration (%): 80 ± 1.9; Cytoprotection: N.D.
CPP5s that were designed based on the Bax-binding domain of Ku70 of several species are named Bax-Inhibiting Peptides (BIPs); they are VPMLK, PMLKE, VPTLK, VPALR, and VPALK. VPMLK and PMLKE were designed from human Ku70, and the same sequence exists in the Ku70 homologues of dog and monkey. VPTLK and VPALR are based on mouse and rat Ku70, respectively. VPALK was designed from cattle Ku70, and the same sequence exists in Ku70 of the African clawed frog. Cytoprotective activities of these BIPs have been previously reported, both in cell culture and animal models. […] The observed variation in cell-entering activity of Fam-labeled-CPP5s is shown in Figure 1a as a percentage of the activity of KLPVM. In all cases, Fam was attached to the N-terminal amino acid. For some CPP5s, cell-penetration activity was confirmed by detection of an intracellular fluorescent signal by microscopy. These latter results are indicated with ‘+’ symbols, and a quantitative comparison with the activity of KLPVM was not performed. […]

T1 sequence (Q07812 whole entry, species assumed): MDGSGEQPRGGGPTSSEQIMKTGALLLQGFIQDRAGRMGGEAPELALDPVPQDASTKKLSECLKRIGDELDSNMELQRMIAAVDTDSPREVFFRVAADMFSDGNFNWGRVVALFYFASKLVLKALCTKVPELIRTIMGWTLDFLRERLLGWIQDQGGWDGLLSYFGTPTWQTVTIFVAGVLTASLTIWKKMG

## VPTLK
[1]
  Inhibition of Bax-induced apoptosis, HeLa: inhibited Bax-induced apoptosis in HeLa cells
[2]
  Protection from etoposide-induced apoptosis, HeLa: protected HeLa cells from etoposide-induced apoptosis
[3]
  Cell Penetration (%), percentage of the activity of KLPVM: 61 ± 1.7%
